Assays:
Format in all cases: in vivo, human
[1] = tested on: resected pancreatic ductal adenocarcinoma (PDAC); assay: DSS after adjuvant gemcitabine in resected PDAC, TCGA test set stratified by VPG signature
From the text: Data from three cohorts of patients were utilized for this experiment: a cohort of 93 patients forming a training data set, a cohort of 46 patients forming a first external data set, and a cohort of 161 patients forming a second external data set. The training data set was identified by selecting PDAC patients who had received adjuvant gemcitabine and no 5-fluorouracil. The training data set included available histopathologic images, data on disease specific survival, and demographic details. From the available histopathologic images, the image identified as the diagnostic slide was used for image analysis by the AI-based pathology platform. Scanned histologic images were analyzed through an AI-based pathology platform in accordance with the systems and methods described herein. The process included tissue segmentation, nuclei segmentation, and finally geometric feature extraction. Tissue was segmented via color-based thresholding to remove empty regions of the slide. Patches of size 2132×2132 were extracted from tissue regions and a validated deep learning model developed was used to segment and classify each nucleus automatically into five classes (i.e., Neoplastic, Connective, No-Neoplastic/Epithelial, Necrotic, Inflammatory). Descriptive morphometric features were then computed for each nucleus. Geometric features were then aggregated first at the patch, and subsequently at the patient level using summary statistics including the mean, standard deviation, skewness and kurtosis to produce the final feature vector for a patient. This feature vector was used as the input to a cox proportional hazards model that used the least absolute shrinkage and selection operator to identify the most correlated features with DSS along with their coefficients on the training set. FIG. 9 provides an illustration of a process to construct a histologic signature associated with disease-specific survival (DSS) after adjuvant gemcitabine. A dataset of scanned whole slide images and the associated clinical data from a cohort of 93 PDAC patients treated with adjuvant gemcitabine in The Cancer Genome Atlas (TCGA) was analyzed. The process to construct a histologic signature includes obtaining a slide 901, digitizing a slide 903, and determining the presence or absence of a histologic biomarker 905. Slides may be obtained in step 901 by resection of pancreatic ductal adenocarcinoma (PDAC). The slides may then then be digitized in step 903 by scanning hematoxylin and eosin-stained resection specimens for whole slide images and subsequently performing digital pathology analysis. […]

resected PDAC = assay: DSS and RFS of post-operatively treated resected PDAC patients, external cohort stratified by gemcitabine-response signature (Example 4); settings: external cohort (45 patients)
From the text: Digitized histological hematoxylin and cosin stained tissue microarray blocks corresponding to post-operatively treated resected PDAC patients from 2011-2015 were used in this experiment. Of the 45 patients, 22 were neoadjuvantly treated with either gemcitabine or 5-FIU backbone cytotoxic chemotherapy. Using the histologic images, the AI-based pathology platform extracted nuclei images from tissue regions using segmentation models and computed geometric features of these nuclei. Patients were stratified by the signature previously associated with gemcitabine response in a dataset into low and high risk groups, and Disease Specific Survival (DSS) and Recurrence Free Survival (RFS) was compared between the stratified groups via Kaplan Meier estimators and log-rank test.

resected PDAC tumors = assay: DSS of resected PDAC patients receiving gemcitabine, divided into two histological subtypes by the model (Example 3)
From the text: One hundred and thirty-nine (139) whole-slide digitized histological slides corresponding to one hundred and two (102) resected PDAC tumors from a data set were used as a training set. This dataset corresponded to patients that had received either gemcitabine-backbone or 5 FU-backbone chemotherapy as their first-line adjuvant treatment. An AI-based pathology platform such as the one described herein was used to extract nuclei images from tissue regions using segmentation models and compute geometric features of these nuclei. The subsequent features were then correlated with Disease Specific Survival (DSS) in order to construct a signature associated with treatment benefit. The resulting signature was compared against two board certified pathologists using the grade of the digital slides images to classify patients into above or below average DSS buckets.

[2] = tested on: resected pancreatic ductal adenocarcinoma (PDAC); assay: DSS and time to recurrence after adjuvant gemcitabine in resected PDAC, external cohort stratified by VPG signature; settings: for median time to recurrence: adjuvant gemcitabine-based therapy (n=46)
From the text: The first external data set represented a set of consecutive 24 patients treated with resection and adjuvant gemcitabine. Clinical data was obtained via manual chart review of the electronic medical record. Digitally scanned tissue microarray specimens were used for image analysis. The cores were 1 mm and were obtained from formalin-fixed, paraffin-embedded (FFPE) samples of extra portions of surgical resections. Whole tissue resection specimens were not available for analysis for this study. Scanned histologic images were analyzed through an AI-based pathology platform in accordance with the systems and methods described herein. The process included tissue segmentation, nuclei segmentation, and finally geometric feature extraction. Tissue was segmented via color-based thresholding to remove empty regions of the slide. Patches of size 2132×2132 were extracted from tissue regions and a validated deep learning model developed was used to segment and classify each nucleus automatically into five classes (i.e., Neoplastic, Connective, No-Neoplastic/Epithelial, Necrotic, Inflammatory). Descriptive morphometric features were then computed for each nucleus. Geometric features were then aggregated first at the patch, and subsequently at the patient level using summary statistics including the mean, standard deviation, skewness and kurtosis to produce the final feature vector for a patient. This feature vector was used as the input to a cox proportional hazards model that used the least absolute shrinkage and selection operator to identify the most correlated features with DSS along with their coefficients on the training set. Subsequently, the performance of the signature in stratifying patients was assessed in two external validation cohorts. A first external cohort 1005 included 45 patients who underwent PDAC resection followed by gemcitabine treatment for whom digitally scanned tissue microarrays of tumor specimens were available. A second external cohort 1007 included 161 patients, whose tumors were resected between 1978 and 2008, when adjuvant treatment was not administered as part of the standard of care. To investigate performance beyond the [NT], experiments applying the model in a retrospective cohort of adjuvant-gemcitabine-treated patients and a retrospective cohort of untreated patients were performed. As illustrated in FIGS. 17A-17D, the VPG signature generalizes to external cohorts of gemcitabine-treated patients but not untreated patients.

SMILES: Nc1ccn([C@@H]2O[C@H](CO)[C@@H](O)C2(F)F)c(=O)n1 [gemcitabine]
- median DSS ([1]; TCGA validation subset (47 patients), negative VPG signature): 16.0 months
- median DSS ([1]; TCGA validation subset (47 patients), positive VPG signature): 67.9 months
- median DSS ([1]; sub-group of 39 validation patients with RNAseq data, negative VPG signature): 16.0 months
- median DSS ([1]; sub-group of 39 validation patients with RNAseq data, positive VPG signature): 67.9 months
- median DSS (resected PDAC; high risk group): 16 months
- median RFS (resected PDAC; high risk group): 9.1 months
- median DSS (resected PDAC; low risk group): 43 months
- median RFS (resected PDAC; low risk group): 22.6 months
- median DSS (resected PDAC tumors; first histological subtype (threshold: average expected lifetime)): 586 days
- median DSS (resected PDAC tumors; second histological subtype (threshold: average expected lifetime)): 394 days
- median time to recurrence ([2]; negative VPG signature): 9.1 months
- median time to recurrence ([2]; positive VPG signature): 22.6 months
- median DSS ([2]; adjuvant gemcitabine-based therapy, external cohort (n=46), negative VPG signature): 16 months
- median DSS ([2]; adjuvant gemcitabine-based therapy, external cohort (n=46), positive VPG signature): 43.1 months
- median DSS ([2]; external cohort, no therapy prior to surgery (n=24), negative VPG signature): 12.9 months
- median DSS ([2]; external cohort, no therapy prior to surgery (n=24), positive VPG signature): 40.2 months
